From patent US6350759B1, “Dihydro- and tetrahydro-quinoline compounds” (Adir et Compagnie, priority 1998, dated 2002)

Tested on: not given
Test: not given
Details: not given

melting point	SMILES
175 to 180 °C	CCOc1c(C)cc2c(c1C)C=CC1(CCCCC1)N2.Cl
166 to 169 °C (dec.)	CCOc1c(C(C)C)cc2c(c1C(C)C)C=CC1(CCCCC1)N2.Cl
180 °C	CC(C)(C)C(=O)Oc1ccc2c(c1)C=CC1(CCCCC1)N2.Cl
227 to 230 °C	CCOc1c(C(C)C)cc2c(c1C(C)C)CCC(C)(C)N2.Cl
192 to 198 °C (dec.)	CCOc1c(C)c(C)c2c(c1C)CCC1(CCCCC1)N2.Cl
132 °C	CC(C)(C)Oc1ccc2c(c1)C=CC1(CCCCC1)N2.Cl
158 to 161 °C	CCOc1c(C)c(C)c2c(c1C)C=CC1(CCCCC1)N2.Cl
176 °C	C1=CC2(CCCCC2)Nc2ccc(Oc3ccccc3)cc21.Cl
191 °C	COc1ccc2c(c1)C=CC1(CCCCC1)N2.Cl
154 to 155 °C	CCOc1cccc2c1NC1(C=C2)CCCCC1.Cl

Tested on: Wistar rat
Test: Neuroprotection in transient and global cerebral ischaemia in the Wistar rat
Format: in vivo
Details: administration 30 minutes before the start of the ischaemia; count 7 days after
Protocol: This animal model (Pulsinelli and Brierley, Stroke 10, 267-272, 1979), is commonly used for the detection of central anti-ischaemic agents (Buchan et al., Neurosci. Lett., 132(2), 255-258, 1991).
Under pentobarbital anaesthesia, the vertebral arteries of male Wistar rats (280-320 g, Charles River) are permanently occluded by electrocoagulation and carotid ligatures are placed around each common carotid. 24 hours later, ischaemia is brought about for […] by clamping the carotids with the carotid ligatures. This ischaemic episode causes delayed neurone death at the level of the pyramidal cells of the hippocampus. Neurone death is measured by a neurone count on sections of brain (7 μm, staining: hematoxylin-eosin) of rats sacrificed 7 days after the ischaemic episode. The results are expressed as a percentage of viable hippocampal neurones compared with the total hippocampal neurone population. […] That is true especially of the compound of Example 1, which, on administration 30 minutes before the start of the ischaemia, induces a reduction by a factor of 2.7.

SMILES	reduction of hippocampal neurone death, factor
CCOc1ccc2c(c1)C=CC1(CCCCC1)N2.Cl [Example 1, 6-Ethoxy-1,2-dihydroquinoline-2-spirocyclohexane hydrochloride]	2.7

Tested on: C57BL/6 mouse
Test: Antagonism of dopaminergic striatonigral dysfunctions induced by methamphetamine in the C57BL/6 mouse
Format: in vivo
Details: dose 2×150 mg/kg i.p.
Protocol: Male mice (C57BL/6 20-25 g) are given four injections of d-methamphetamine (5 mg/kg base, i.p.) at intervals of 2 hours (Sonsalla and Heikkila, Prog. Neuro-Psychopharmacolo. & Biol. Psychiat., 12, 345-354, 1988) and the anti-oxidant being tested is administered (i.p.) 30 minutes before the first and third injections of d-methamphetamine (Yamamoto and Zhu, J. Pharmacol. Exp. Ther. 287, 107-114, 1988). The rectal temperature is monitored throughout the duration of the experiment. The animals are sacrificed by decapitation 72 hours after the last injection of d-methamphetamine. The brains are rapidly extracted, and the striata are removed, frozen in liquid nitrogen and weighed. The striata are homogenised by sonication in 20 volumes of 0.1N HClO4, and the homogenate is centrifuged at 15000 g for 20 minutes at 4° C. The supernatants are collected for assaying the striata tissue levels of dopamine by means of HPLC coupled with coulometric detection (Bonhomme et al., Brain Res., 675, 215-233, 1995). The results are expressed as μg of dopamine/g of tissue. […] That is true especially of the compound of Example 1 administered in a dose of 2×150 mg/kg i.p.

SMILES	effect on dopaminergic deficit induced by methamphetamine (striatal dopamine)
CCOc1ccc2c(c1)C=CC1(CCCCC1)N2.Cl [Example 1, 6-Ethoxy-1,2-dihydroquinoline-2-spirocyclohexane hydrochloride]	oppose the dopaminergic deficit

Tested on: Wistar rat
Test: Delayed hippocampal neurodegeneracy induced by kainic acid in the Wistar rat
Format: in vivo
Details: 150 mg/kg i.p. 30 minutes before kainic acid 12 mg/kg s.c.; count 7 days later
Protocol: This method is frequently used as a model of temporal epilepsy in humans (Ben-Ari, Neurosci., 14, 375-403, 1985).
Male Wistar rats (180-220 g, CERJ) are given kainic acid (12 mg/kg) by the subcutaneous route. The animals are sacrificed by decapitation 7 days later. The brains are removed and then cut, in the frozen state, into frontal sections of 7 μm, which are stained (hematoxylin-eosin). Hippocampal neurone death is assessed by a neurone count at the level of the CA3 layer of the hippocampus. The results are expressed as a percentage of viable neurones in the CA3 layer compared with the total neurone population.

SMILES	reduction in neurone death (CA3 layer), factor
CCOc1ccc2c(c1)C=CC1(CCCCC1)N2.Cl [Example 1, 6-Ethoxy-1,2-dihydroquinoline-2-spirocyclohexane hydrochloride]	3
